Measured values reported in article PMC9854566, “Antiamnesic Effects of Feralolide Isolated from Aloe vera Resin Miller against Learning Impairments Induced in Mice” (Antioxidants, 2023).

Columns and labels:
[1] = target: T1, butyrylcholinesterase (BuChE), equine (Equus caballus, UniProt P81908); experiment: Ellman spectrophotometric assay ([…] nm); format: biochemical
T1 construct: gene BCHE

[2] = target: acetylcholinesterase (AChE), electric eel, type VI-S (Electrophorus electricus, UniProt O42275); experiment: Ellman spectrophotometric assay ([…] nm); format: biochemical
Sequence of acetylcholinesterase (AChE), electric eel, type VI-S (O42275 24-633): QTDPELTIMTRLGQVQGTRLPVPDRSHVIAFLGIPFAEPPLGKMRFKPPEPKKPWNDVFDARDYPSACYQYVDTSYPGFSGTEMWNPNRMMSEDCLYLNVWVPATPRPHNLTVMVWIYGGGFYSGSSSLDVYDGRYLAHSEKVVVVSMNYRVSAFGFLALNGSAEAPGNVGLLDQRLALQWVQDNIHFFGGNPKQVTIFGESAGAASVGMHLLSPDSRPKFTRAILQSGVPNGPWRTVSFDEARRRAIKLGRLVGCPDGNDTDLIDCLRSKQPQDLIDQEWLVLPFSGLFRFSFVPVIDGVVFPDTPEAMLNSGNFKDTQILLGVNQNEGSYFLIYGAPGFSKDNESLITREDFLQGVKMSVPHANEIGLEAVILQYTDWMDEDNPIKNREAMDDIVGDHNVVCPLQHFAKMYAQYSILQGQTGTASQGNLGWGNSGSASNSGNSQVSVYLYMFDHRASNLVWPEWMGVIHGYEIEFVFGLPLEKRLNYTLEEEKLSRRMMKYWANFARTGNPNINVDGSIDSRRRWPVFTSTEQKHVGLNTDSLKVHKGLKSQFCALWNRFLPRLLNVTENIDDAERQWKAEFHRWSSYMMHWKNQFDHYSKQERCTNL

T1 sequence (P81908 whole entry): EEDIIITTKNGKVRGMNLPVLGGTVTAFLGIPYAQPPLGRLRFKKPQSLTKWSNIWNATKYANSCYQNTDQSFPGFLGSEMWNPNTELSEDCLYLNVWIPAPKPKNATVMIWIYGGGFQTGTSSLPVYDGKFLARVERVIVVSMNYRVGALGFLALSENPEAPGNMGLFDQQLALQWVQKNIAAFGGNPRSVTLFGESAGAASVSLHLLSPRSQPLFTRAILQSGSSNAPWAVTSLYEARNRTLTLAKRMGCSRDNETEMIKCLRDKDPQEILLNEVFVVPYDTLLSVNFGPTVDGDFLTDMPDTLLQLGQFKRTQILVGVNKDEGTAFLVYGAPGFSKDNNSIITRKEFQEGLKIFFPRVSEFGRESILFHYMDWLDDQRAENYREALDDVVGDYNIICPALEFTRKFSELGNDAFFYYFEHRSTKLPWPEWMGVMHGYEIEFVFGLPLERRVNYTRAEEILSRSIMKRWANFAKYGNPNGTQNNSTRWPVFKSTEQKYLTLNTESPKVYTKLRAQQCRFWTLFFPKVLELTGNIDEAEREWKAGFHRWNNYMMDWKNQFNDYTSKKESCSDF

SMILES: CC(=O)c1c(O)cc(O)cc1C[C@@H]1Cc2cc(O)cc(O)c2C(=O)O1 [feralolide]
- IC50 [1]: 151 µM
- IC50 [2]: 160 µM
